Molecular target: Lysine-specific histone demethylase 1A (Homo sapiens, UniProt O60341)
Assay: Inhibition of N-terminal GST tagged LSD1 (residues 171 - 852) (unknown origin) overexpressed in Escherichia coli using ARTK(Me)2QTARKSTGGKAPRKQLAas substrate incubated for 20 mins by spectrophotometric analysis

IC50: 0.33 µM
Structure (SMILES): Nc1ccccc1NC(=O)c1ccc(CCCC(=O)Nc2ccc(C3CC3N)cc2)cc1 (stereo unspecified)

— BindingDB's records for PubMed 33077264 (Menoufia University, 2021)
